Measurements as given in US9095585B2, “Bioavailable compositions of amorphous piperidinyl compounds” (Bristol-Myers Squibb Company, priority 2011, dated 2015).

Test: Physicochemical properties of Compound I (ionization, aqueous solubility)

With `CC(C)[C@@H](NC(=O)NCC(C)(C)O)C(=O)N1CC[C@](O)(c2ccc(Cl)cc2)C(C)(C)C1` [Compound I] the ionization (pH range of 2-11) was “non-ionizable” and the aqueous solubility (room temperature) was “low”.
